Assay results from patent US10941158B2, “Pyrazole ACC inhibitors and uses thereof” (Gilead Apollo, LLC, priority 2015, dated 2021).
Values after ≈ are worked out from the molar mass of the structure shown. Read-outs that look alike come from different tables or passages of the source.

Experiments:
human (hACC2) ACC2 = human (hACC2) ACC2 (Homo sapiens, UniProt O00763); test: In vitro Acetyl-CoA Carboxylase (ACC) inhibition assay (ADP-Glo), hACC2; assay type: biochemical
Protocol: The detailed procedure is as follows. […] 10 μL ADP glo reagent was added. […] 20 μL kinase detection reagent was added.
“NA” stands for “not assayed.”

C. krusei ATCC 6258 = test: Anti-Fungal (Candida) Activity Assay, broth microtiter MIC; assay type: cell-based; conditions: Pichia kudriavzevii, ATCC6258, 48 h, read-out: MIC C. krusei ATCC 6258
Protocol: (§1) Compounds of the present invention were evaluated in an Anti-Fungal Activity Assay. An exemplary procedure for the assay, which measures the susceptibility of various Candida species to anti-fungal compounds, follows. Compounds to be tested (including fluconazole and amphotericin B) were dissolved in DMSO to obtain a solution having a concentration of 1 mg/mL. […] All species were grown from frozen stock by directly plating on to freshly prepared Sabouraud Dextrose agar (BD, Difco) and incubated overnight in ambient air at 35° C. for 24 h. A direct suspension was prepared in RPMI 1640+MOPS (Lonza, Biowhittaker) by taking individual colonies from the overnight cultures using sterile swabs soaked in sterile saline. The concentration of the suspension was determined using pre-determined standard curves. […] Broth microtiter MIC challenge plates were prepared following CLSI guidelines (M27-A3, Vol. 28 No. 14). The original CLSI guidelines focused on reading Candida MICs after 48 h of incubation. As reading after only 24 h offers a clear advantage of patient care, QC limits are being established for all drugs at 24 h. That being said there are no known interpretive breakpoints for amphotericin B at 24 h and the current fluconazole interpretive breakpoints are based on a 48 h reading. The MIC for the test compounds were recorded at 48 h. All MIC determinations were achieved by visually comparing the growth found in the antibiotic challenged wells to that of the growth control.

C. albicans ATCC 90028 = test: as above; assay type: cell-based; conditions: ATCC90028, 48 h, read-out: MIC C. albicans ATCC 90028
Protocol: as §1

[1] = system: C. parapsilosis ATCC 22019; test: as above; assay type: cell-based; conditions: Lodderomyces parapsilosis, ATCC22019, 48 h, read-out: MIC C. parapsilosis ATCC 22019
Protocol: as §1

[2] = system: Collectotrichum graminicola (Cg); test: Growth inhibition assay of fungal pathogens; assay type: cell-based; conditions: 48 h, read-out: Concentration at 90% Inhibition Cg
Protocol: (§2) Compounds of the present invention were evaluated in a growth inhibition assay to determine the ability to control the growth of fungal pathogens, such as Botrtyis cinerea (Bc), Collectotrichum graminicola (Cg). Diplodia maydis (Dm), Fusarium moniliforme (Fm), Fusarium virguliforme (Fv), Phytophthora capsici (Pc), Rhizoctonia solani (Rs), and Septoria tritici (St). Compounds to be tested were dissolved in DMSO at 2.5 mg/ml to produce compound stock solutions (“stocks”). Stocks were diluted with DMSO by a five-fold dilution in a 96-well stock plate, and two sets of final concentrations of 50, 10, and 2 ppm or 2, 0.4, and 0.08 ppm were obtained in vitro. A set of positive controls was also prepared, with various concentrations of Soraphen (2, 0.4, and 0.08 ppm), Metalaxyl (1.1, 0.22, and 0.04 ppm), and Metconazole (2, 0.4, and 0.08 ppm or 0.2, 0.04, and 0.008 ppm) after the five-fold dilutions. Negative controls on each plate included 2% DMSO, water, and a blank (media+2% DMSO). Fungal spores were isolated from previously sub-cultured plates of Botrtyis cinerea (Bc). Collectotrichum graminicola (Cg). Diplodia maydis (Dm), Fusarium moniliforme (Fm), Fusarium virguliforme (Fv), Phytophthora capsici (Pc), and Septoria tritici (St). The isolated spores were diluted to individual concentrations with a 17% V8 liquid media. For Rhizoctonia solani (Rs) and Pythium irregulare, 1.5 mm mycelial plugs were used in place of spores and ¼ Potato Dextrose Broth (PDB) was used for dilution. The spore concentrations and plug sizes were based on growth curves generated at 48 hours for each pathogen. In a second 96-well plate, the spores or mycelial plugs, media, diluted compound solutions, and controls were combined. Once the compound was added, a true final concentration of compound in each well was measured by an OD600 reading, which adjusted for any compound precipitation that might have occurred in the well. Plate readings were repeated at both 24 and 48 hours. The blank negative control was used as a background subtraction. Additional visual ratings were performed at both 24 and 48 hours for checking on precipitation and confirming efficacy. Visual and OD600 ratings of the compounds at 48 hours were compared to the 2% DMSO negative control, and the percent of pathogen growth inhibition was determined based on those values.

[3] = system: Fusarium virguliforme (Fv); test: Growth inhibition assay of fungal pathogens; assay type: cell-based; conditions: 48 h
Protocol: as §2

[4] = system: Phytophthora capsici (Pc); test: Growth inhibition assay of fungal pathogens; assay type: cell-based; conditions: Phytophthora capsici, 48 h, read-out: Concentration at 90% Inhibition Pc
Protocol: as §2

Septoria tritici (St) = test: Growth inhibition assay of fungal pathogens; assay type: cell-based; conditions: Zymoseptoria tritici, 48 h, read-out: Concentration at 90% Inhibition St
Protocol: as §2

[5] = system: Fusarium moniliforme (Fm); test: Growth inhibition assay of fungal pathogens; assay type: cell-based; conditions: for IC90: Fusarium verticillioides, 48 h, read-out: Concentration at 90% Inhibition Fm; for Concentration at 90% Inhibition Fm: Table 4b, 48 hours
Protocol: as §2

Diplodia maydis (Dm) = test: Growth inhibition assay of fungal pathogens; assay type: cell-based; conditions: Stenocarpella maydis, 48 h, read-out: Concentration at 90% Inhibition Dm
Protocol: as §2

Botrtyis cinerea (Bc) = test: Growth inhibition assay of fungal pathogens; assay type: cell-based; conditions: 48 h, read-out: Concentration at 90% Inhibition Bc
Protocol: as §2

Rhizoctonia solani (Rs) = test: Growth inhibition assay of fungal pathogens; assay type: cell-based; conditions: 48 h, read-out: Concentration at 90% Inhibition Rs
Protocol: as §2

[6] = read-out: Concentration at 90% Inhibition Fv, Table 4a, 48 hours
[7] = read-out: Concentration at 90% Inhibition Fv, Table 4b, 48 hours

human (hACC2) ACC2, sequence (O00763 whole entry): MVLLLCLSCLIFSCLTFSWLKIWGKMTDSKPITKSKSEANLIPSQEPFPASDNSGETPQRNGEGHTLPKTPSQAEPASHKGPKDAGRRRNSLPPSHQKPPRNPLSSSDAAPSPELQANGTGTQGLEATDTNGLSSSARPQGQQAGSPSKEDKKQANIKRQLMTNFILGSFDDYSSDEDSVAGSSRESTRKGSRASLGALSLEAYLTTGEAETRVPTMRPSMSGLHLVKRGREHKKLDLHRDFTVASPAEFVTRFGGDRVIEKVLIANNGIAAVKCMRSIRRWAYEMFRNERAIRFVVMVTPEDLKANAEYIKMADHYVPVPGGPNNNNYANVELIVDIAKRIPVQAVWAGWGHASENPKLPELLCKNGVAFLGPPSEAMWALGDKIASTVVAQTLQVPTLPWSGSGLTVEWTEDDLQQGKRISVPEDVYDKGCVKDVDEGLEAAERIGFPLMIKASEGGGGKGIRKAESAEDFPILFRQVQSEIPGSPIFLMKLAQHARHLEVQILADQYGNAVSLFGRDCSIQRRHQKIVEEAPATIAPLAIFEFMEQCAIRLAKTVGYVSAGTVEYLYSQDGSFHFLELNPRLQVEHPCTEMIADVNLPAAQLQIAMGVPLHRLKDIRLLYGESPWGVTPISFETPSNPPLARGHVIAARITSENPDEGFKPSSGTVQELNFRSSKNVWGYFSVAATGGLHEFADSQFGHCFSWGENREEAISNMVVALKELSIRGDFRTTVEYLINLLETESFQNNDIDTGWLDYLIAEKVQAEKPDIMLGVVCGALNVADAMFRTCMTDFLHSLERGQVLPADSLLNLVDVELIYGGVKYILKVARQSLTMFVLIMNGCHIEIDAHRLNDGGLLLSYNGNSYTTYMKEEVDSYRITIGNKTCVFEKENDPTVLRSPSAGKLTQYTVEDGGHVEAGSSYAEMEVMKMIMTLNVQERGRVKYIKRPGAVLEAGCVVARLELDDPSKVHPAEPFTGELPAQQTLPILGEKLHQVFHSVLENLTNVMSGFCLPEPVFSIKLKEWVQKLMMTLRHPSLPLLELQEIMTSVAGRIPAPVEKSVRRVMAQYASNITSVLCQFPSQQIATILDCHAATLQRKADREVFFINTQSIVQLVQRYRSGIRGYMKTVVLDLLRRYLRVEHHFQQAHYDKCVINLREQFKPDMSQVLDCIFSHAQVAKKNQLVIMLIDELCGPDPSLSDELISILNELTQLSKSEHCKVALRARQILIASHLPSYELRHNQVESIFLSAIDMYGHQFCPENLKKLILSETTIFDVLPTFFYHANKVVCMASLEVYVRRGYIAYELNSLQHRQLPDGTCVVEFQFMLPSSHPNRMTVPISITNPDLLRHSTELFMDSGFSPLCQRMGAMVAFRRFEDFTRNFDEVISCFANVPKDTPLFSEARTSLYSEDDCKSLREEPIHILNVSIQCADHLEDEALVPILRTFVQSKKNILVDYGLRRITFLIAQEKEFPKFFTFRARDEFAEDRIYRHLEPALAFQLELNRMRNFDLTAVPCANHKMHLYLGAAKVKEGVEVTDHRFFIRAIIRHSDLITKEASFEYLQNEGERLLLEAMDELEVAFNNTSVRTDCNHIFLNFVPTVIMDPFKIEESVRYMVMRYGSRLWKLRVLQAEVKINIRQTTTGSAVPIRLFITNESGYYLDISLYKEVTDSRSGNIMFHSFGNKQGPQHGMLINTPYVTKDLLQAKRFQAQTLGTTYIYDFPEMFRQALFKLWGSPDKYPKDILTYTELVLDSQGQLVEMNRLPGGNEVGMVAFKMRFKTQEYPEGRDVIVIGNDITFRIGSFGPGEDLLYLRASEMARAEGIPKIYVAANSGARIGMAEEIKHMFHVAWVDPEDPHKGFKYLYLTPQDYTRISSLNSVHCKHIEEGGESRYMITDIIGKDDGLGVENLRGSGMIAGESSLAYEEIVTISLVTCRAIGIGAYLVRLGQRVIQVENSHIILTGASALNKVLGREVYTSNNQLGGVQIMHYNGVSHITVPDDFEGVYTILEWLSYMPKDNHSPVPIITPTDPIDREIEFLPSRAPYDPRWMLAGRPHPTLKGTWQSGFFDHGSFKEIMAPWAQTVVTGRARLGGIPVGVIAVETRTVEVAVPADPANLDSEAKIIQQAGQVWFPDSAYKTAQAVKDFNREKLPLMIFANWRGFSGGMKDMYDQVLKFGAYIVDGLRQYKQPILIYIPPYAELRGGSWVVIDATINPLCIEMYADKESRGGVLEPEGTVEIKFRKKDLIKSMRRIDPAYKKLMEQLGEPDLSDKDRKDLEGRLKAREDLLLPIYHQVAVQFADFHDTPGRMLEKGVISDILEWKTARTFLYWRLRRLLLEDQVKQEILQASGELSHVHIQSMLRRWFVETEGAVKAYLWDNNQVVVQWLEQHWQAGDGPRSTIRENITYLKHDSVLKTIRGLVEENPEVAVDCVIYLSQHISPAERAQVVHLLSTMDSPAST

SMILES	IC50 (human (hACC2) ACC2)	MIC (C. krusei ATCC 6258)	MIC (C. albicans ATCC 90028)	MIC [1]	IC90 ([2]; Table 4a)	IC90 ([2]; Table 4b)	IC90 [3, 6]	IC90 [3, 7]	IC90 ([4]; Table 4a)	IC90 ([4]; Table 4b)	IC90 (Septoria tritici (St); Table 4a)	IC90 (Septoria tritici (St); Table 4b)	IC90 [5]	Concentration at 90% Inhibition Fm [5]	IC90 (Diplodia maydis (Dm); Table 4a)	IC90 (Diplodia maydis (Dm); Table 4b)	IC90 (Botrtyis cinerea (Bc); Table 4a)	IC90 (Botrtyis cinerea (Bc); Table 4b)	IC90 (Rhizoctonia solani (Rs); Table 4a)	IC90 (Rhizoctonia solani (Rs); Table 4b)
COc1ccccc1[C@H](Cn1c(=O)n(C(C)(C)C(=O)NC(C)C)c(=O)c2c(C)c(-n3cccn3)sc21)OC(C)C [Compound I-17, (R)-2-(l-(2-isopropoxy-2-(2-methoxyphenyl)ethyl)-5-methyl-2,4-dioxo-6-(H-pyrazol-1-yl)-1,4-dihydrothieno[2,3-d]pyrimidin-3(2H)-yl)-N-isopropyl-2-methylpropanamide]	0.003 to 0.01 µM	0.25 to 1 µg/mL (≈ 0.44 to 1.76 µM)	0.25 to 1 µg/mL (≈ 0.44 to 1.76 µM)	0.25 to 1 µg/mL (≈ 0.44 to 1.76 µM)	> 50 µg/mL	10 µg/mL (≈ 17.6 µM)	0.4 µg/mL (≈ 0.705 µM)	0.4 µg/mL (≈ 0.705 µM)	> 50 µg/mL	> 50 µg/mL	> 50 µg/mL	> 50 µg/mL	0.4 µg/mL (≈ 0.705 µM)	A (“A” provided a compound concentration of 0.4 ppm at 90% inhibition of fungal pathogens)	2 µg/mL (≈ 3.52 µM)	2 µg/mL (≈ 3.52 µM)	2 µg/mL (≈ 3.52 µM)	2 µg/mL (≈ 3.52 µM)	> 50 µg/mL	> 50 µg/mL
COc1ccccc1[C@H](Cn1c(=O)n(C(C)(C)C(=O)N2CCCCC2)c(=O)c2c(C)c(-n3cccn3)sc21)OC(C)C [Compound I-19, (R)-1-(2-isopropoxy-2-(2-methoxyphenyl)ethyl)-5-methyl-3-(2-methyl-1-oxo-1-(piperidin-1-yl)propan-2-yl)-6-(H-pyrazol-1-yl)thieno[2,3-d]pyrimidine-2,4(1H,3H)-dione]	0.01 to 0.04 µM	2.1 to 4 µg/mL (≈ 3.54 to 6.74 µM)	> 4.1 µg/mL	> 4.1 µg/mL	10 µg/mL (≈ 16.8 µM)	2 µg/mL (≈ 3.37 µM)	0.4 µg/mL (≈ 0.674 µM)	0.4 µg/mL (≈ 0.674 µM)	> 50 µg/mL	> 50 µg/mL	> 50 µg/mL	> 50 µg/mL	0.08 µg/mL (≈ 0.135 µM)	AA (“AA” provided a compound concentration of 0.08 ppm at 90% inhibition of fungal pathogens)	2 µg/mL (≈ 3.37 µM)	2 µg/mL (≈ 3.37 µM)	0.4 µg/mL (≈ 0.674 µM)	0.4 µg/mL (≈ 0.674 µM)	2 µg/mL (≈ 3.37 µM)	2 µg/mL (≈ 3.37 µM)
COc1ccccc1[C@H](Cn1c(=O)n(C(C)(C)C(=O)NC(C)C)c(=O)c2c(C)c(-n3cccn3)sc21)OCC(C)C [Compound I-21, (R)-2-(1-(2-isobutoxy-2-(2-methoxyphenyl)ethyl)-5-methyl-2,4-dioxo-6-(1H-pyrazol-1-yl)-1,4-dihydrothieno[2,3-d]pyrimidin-3(2H)-yl)-N-isopropyl-2-methylpropanamide]	0.01 to 0.04 µM	0.25 to 1 µg/mL (≈ 0.43 to 1.72 µM)	0.25 to 1 µg/mL (≈ 0.43 to 1.72 µM)	0.25 to 1 µg/mL (≈ 0.43 to 1.72 µM)	> 50 µg/mL	10 µg/mL (≈ 17.2 µM)	> 50 µg/mL	10 µg/mL (≈ 17.2 µM)	> 50 µg/mL	> 50 µg/mL	> 50 µg/mL	> 50 µg/mL	0.4 µg/mL (≈ 0.688 µM)	A (“A” provided a compound concentration of 0.4 ppm at 90% inhibition of fungal pathogens)	10 µg/mL (≈ 17.2 µM)	2 µg/mL (≈ 3.44 µM)	2 µg/mL (≈ 3.44 µM)	2 µg/mL (≈ 3.44 µM)	2 µg/mL (≈ 3.44 µM)	2 µg/mL (≈ 3.44 µM)
